Results on 52 compounds are retold here after patent US10820591B2, “Substituted sulfonyl amides for controlling animal pests” (Bayer Aktiengesellschaft, priority 2016, dated 2020).

SMILES strings stand for the structures.

One experiment has as its system Meloidogyne incognita. In words: Meloidogyne incognita test (sand, lettuce, gall formation). The class given is in vivo. Conditions: Meloidogyne incognita, 336 h, 4 ppm, after 14 days; read-out: nematicidal efficacy (formation of galls). The procedure:
Meloidogyne incognita Test [table] To produce a suitable active compound preparation, 1 part by weight of active compound is mixed with the stated amount of solvent and the concentrate is diluted to the desired concentration with water. Vessels are filled with sand, active compound solution, an egg/larvae suspension of the southern root-knot nematode (Meloidogyne incognita) and lettuce seeds. The lettuce seeds germinate and the plants develop. The galls develop on the roots. After 14 days, the nematicidal efficacy in % is determined by the formation of galls. 100% means that no galls were found; 0% means that the number of galls on the treated plants corresponds to the untreated control.
As for `Cn1nc(C(=O)NS(=O)(=O)c2c(Cl)cccc2Cl)cc1-c1c(F)cccc1F` [I-145], the pest or weed control at 4 ppm came to 90%.
On the same count and under the same terms, the same measure for `O=C(NS(=O)(=O)c1c(Cl)cccc1Cl)c1cn(Cc2ccc(Cl)cc2)cn1` [I-149]: 90%.

The same experiment, now with this note: Meloidogyne incognita, 336 h, 20 ppm, after 14 days; read-out: nematicidal efficacy (formation of galls).
On to `CCCCOc1ccc(S(=O)(=O)NC(=O)c2ncn(CCC(F)(F)F)c2Cl)cc1` [I-090], for which the pest or weed control at 20 ppm was determined as 90%.
Same read-out and setting: for `CC(=O)Nc1ccc(S(=O)(=O)NC(=O)c2ncn(CCC(F)(F)F)c2Cl)cc1` [I-091] the value was 90%.
On the same count and under the same terms, the same measure for `Cc1ccc(CS(=O)(=O)NC(=O)c2ncn(CCC(F)(F)F)c2Cl)cc1` [I-092]: 70%; for `Cc1ccccc1CS(=O)(=O)NC(=O)c1ncn(CCC(F)(F)F)c1Cl` [I-093]: 100%.
For `O=C(NS(=O)(=O)c1ccc(Cl)s1)c1ncn(CCC(F)(F)F)c1Cl` [I-094], the pest or weed control at 20 ppm came out at 90%.
Still for that read-out and setting: the same measure for `Cc1noc(C)c1S(=O)(=O)NC(=O)c1ncn(CCC(F)(F)F)c1Cl` [I-095]: 90%; for `COc1cc(OC)nc(Oc2ccc(S(=O)(=O)NC(=O)c3ncn(CCC(F)(F)F)c3Cl)cc2)n1` [I-096]: 90%; for `O=C(NS(=O)(=O)c1cccs1)c1ncn(CCC(F)(F)F)c1Cl` [I-097]: 90%.
As for `COc1ccc(Cl)c(S(=O)(=O)NC(=O)c2ncn(CC(F)(F)C(F)(F)F)c2Cl)c1` [I-098], the pest or weed control at 20 ppm is 90%.
`O=C(NS(=O)(=O)c1c(Cl)cccc1Cl)c1ncn(CC(F)(F)C(F)(F)F)c1Cl` [I-099]: the pest or weed control at 20 ppm amounted to 70%.
Still for that read-out and setting: the same measure for `COc1ccc(Cl)c(S(=O)(=O)NC(=O)c2ncn(C(C)CC(F)(F)F)c2Cl)c1` (centres unmarked) [I-100]: 90%.
The same measure, in the same setting: the same measure for `CC(CC(F)(F)F)n1cnc(C(=O)NS(=O)(=O)c2c(Cl)cccc2Cl)c1Cl` (centres unmarked) [I-101]: 100%; for `CC(CC(F)(F)F)n1cnc(C(=O)NS(=O)(=O)c2ccccc2C(F)(F)F)c1Cl` (centres unmarked) [I-102]: 100%.
Same read-out and setting: the same measure for `COc1ccc(Cl)c(S(=O)(=O)NC(=O)c2ncn(C3CC3C(F)(F)F)c2Cl)c1` (centres unmarked) [I-103]: 100%.
Regarding `CC(C)Oc1ccc(Cl)c(S(=O)(=O)NC(=O)c2ncn(C3CC3C(F)(F)F)c2Cl)c1` (centres unmarked) [I-104], the pest or weed control at 20 ppm was found to be 100%.
Same read-out and setting: for `O=C(NS(=O)(=O)c1cc(C(F)(F)F)ccc1Cl)c1ncn(C2CC2C(F)(F)F)c1Cl` (centres unmarked) [I-105] the value was 90%.
The same measure, in the same setting: the same measure for `COc1ccc(Cl)c(S(=O)(=O)NC(=O)c2nc(Br)n(CCC(F)(F)F)c2Br)c1` [I-108]: 100%; for `COc1ccc(Cl)c(S(=O)(=O)NC(=O)c2nc(C)n(-c3cc(Cl)cc(Cl)c3)c2Br)c1` [I-109]: 100%; for `COc1ccc(Cl)c(S(=O)(=O)NC(=O)c2nc(C)n(-c3cc(Cl)cc(Cl)c3)c2I)c1` [I-110]: 100%.
On the same count and under the same terms, for `Cc1nc(C(=O)NS(=O)(=O)c2ccccc2Cl)c(Cl)n1-c1cc(Cl)cc(Cl)c1` [I-111] the value was 100%.
For the compound `Cc1ccccc1S(=O)(=O)NC(=O)c1nc(C)n(-c2cc(Cl)cc(Cl)c2)c1Cl` [I-112], the pest or weed control at 20 ppm was 100%.
The same measure, in the same setting: for `O=C(NS(=O)(=O)c1ccccc1Cl)c1nc(Cl)n(-c2cc(Cl)cc(Cl)c2)c1Cl` [I-114] the value was 100%.
Still for that read-out and setting: the same measure for `Cc1ccccc1S(=O)(=O)NC(=O)c1nc(Cl)n(-c2cc(Cl)cc(Cl)c2)c1Cl` [I-115]: 100%; for `CC(C)S(=O)(=O)NC(=O)c1cn(C)c(Cc2ccccc2Cl)n1` [I-117]: 90%; for `Cn1cc(C(=O)NS(=O)(=O)c2ccccc2Cl)nc1Cc1cccc(Cl)c1` [I-119]: 90%.
Consider `O=C(NS(=O)(=O)c1cc(Cl)ccc1Cl)c1nc(Cl)n(CCC(F)(F)F)c1Cl` [I-123], for which the pest or weed control at 20 ppm stood at 90%.
Same read-out and setting: for `O=C(NS(=O)(=O)c1ccccc1Cl)c1nc(Cl)n(CCC(F)(F)F)c1Cl` [I-124] the value was 100%; for `COc1ccc(S(=O)(=O)NC(=O)c2nc(Cl)n(CCC(F)(F)F)c2Cl)cc1` [I-125], 100%; for `Cn1nc(C(=O)NS(C)(=O)=O)cc1-c1cccc(Cl)n1` [I-126], 100%.
On the same count and under the same terms, the same measure for `Cn1nc(C(=O)NS(C)(=O)=O)cc1-c1ncccc1Cl` [I-128]: 70%; for `COc1ccc(Cl)c(S(=O)(=O)NC(=O)c2cc(-c3cccc(Cl)c3)n(C)n2)c1` [I-129]: 90%.
`COc1ccc(Cl)c(S(=O)(=O)NC(=O)c2cc(-c3ccccc3Cl)n(C)n2)c1` [I-130]: the pest or weed control at 20 ppm worked out at 90%.
The same measure, in the same setting: for `Cn1nc(C(=O)NS(=O)(=O)c2cc(Cl)ccc2Cl)cc1-c1ccc(Cl)cc1` [I-131] the value was 90%; for `Cn1nc(C(=O)NS(=O)(=O)c2cc(Cl)ccc2Cl)cc1-c1cccc(Cl)c1` [I-132], 90%.
Same read-out and setting: the same measure for `Cn1nc(C(=O)NS(=O)(=O)c2cc(Cl)ccc2Cl)cc1-c1ccccc1` [I-133]: 70%; for `Cn1nc(C(=O)NS(=O)(=O)c2cc(Cl)ccc2Cl)cc1-c1cc(Cl)cc(Cl)c1` [I-134]: 100%.
Same read-out and setting: for `Cn1nc(C(=O)NS(=O)(=O)c2cc(Cl)ccc2Cl)cc1-c1cccc(C(F)(F)F)c1` [I-135] the value was 90%; for `Cn1nc(C(=O)NS(=O)(=O)c2cc(Cl)ccc2Cl)cc1-c1ncc(C(F)(F)F)cc1Cl` [I-136], 100%.
With `COc1ccc(Cl)c(S(=O)(=O)NC(=O)c2cc(-c3cccc(C(F)(F)F)c3)n(C)n2)c1` [I-138], the pest or weed control at 20 ppm stood at 100%.
Turning to `COc1ccc(Cl)c(S(=O)(=O)NC(=O)c2cc(-c3ncc(C(F)(F)F)cc3Cl)n(C)n2)c1` [I-139], the pest or weed control at 20 ppm worked out at 100%.
Still for that read-out and setting: the same measure for `Cn1nc(C(=O)NS(=O)(=O)c2cc(Cl)ccc2Cl)cc1-c1cc(F)cc(C(F)(F)F)c1` [I-140]: 100%; for `Cn1nc(C(=O)NS(=O)(=O)c2ccccc2Cl)cc1-c1c(F)cccc1F` [I-142]: 100%; for `Cn1nc(C(=O)NS(=O)(=O)c2cc(Cl)ccc2Cl)cc1-c1c(F)cccc1F` [I-143]: 90%.
Same read-out and setting: for `COc1ccc(Cl)c(S(=O)(=O)NC(=O)c2cc(-c3c(F)cccc3F)n(C)n2)c1` [I-144] the value was 90%.
Same read-out and setting: the same measure for `Cn1nc(C(=O)NS(=O)(=O)c2c(Cl)cccc2Cl)cc1-c1c(F)cccc1F` [I-145]: 70%; for `Cn1nc(C(=O)NS(=O)(=O)c2c(F)cccc2F)cc1-c1c(F)cccc1F` [I-146]: 100%.
In the case of `O=C(NS(=O)(=O)c1ccc(Cl)cc1Cl)c1cn(Cc2ccc(Cl)cc2)cn1` [I-148], the pest or weed control at 20 ppm worked out at 100%.
Same read-out and setting: for `O=C(NS(=O)(=O)c1ccc(Cl)cc1)c1cn(Cc2ccccc2)cn1` [I-150] the value was 100%; for `O=C(NS(=O)(=O)c1ccccc1)c1cn(Cc2ccc(Cl)cc2)cn1` [I-151], 100%; for `O=C(NS(=O)(=O)c1ccccc1)c1cn(Cc2ccccc2)cn1` [I-152], 100%.
On the same count and under the same terms, the same measure for `O=C(NS(=O)(=O)c1cc(Cl)ccc1Cl)c1cn(Cc2ccccc2)cn1` [I-153]: 100%.
